Assays:
[1] = test system: catecholaminergic fibers projecting to pancreatic LN; parameters: species or system tdTomatoTH-Cre mice
[2] = test system: OVA-specific CD8+ TCR transgenic T-cells; test: Pancreatic auto-antigen cross-presentation: proliferation of adoptively transferred OVA-specific CD8+ T cells in RIP-OVA mice under PNES; type: in vivo, RIP-OVA transgenic mice; conditions: PNES 450 μA, 10 Hz, 2 mn, 3 times/day; FIG. 3C

Row | SMILES | Field Action Potentials (FAP) peak amplitude after addition of TTX to the medium [1] | Effect of PNES on auto-antigen cross-presentation (T cell proliferation relative to sham) in mice treated with propranolol [2]
1 | NC1=N[C@H](O)[C@H]2[C@H]3O[C@]4(O)O[C@@H]([C@@H](O)[C@@]2(N1)[C@@H]4O)[C@]3(O)CO [tetrodotoxin] | inhibited | –
2 | CC(C)NCC(O)COc1cccc2ccccc12 (centres unmarked) [propranolol] | – | β-AR-dependent

Source: patent US11517754B2 (priority 2017, dated 2022)
